Reference: PubChem BioAssay (NCI)
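A five-concentration, 48-hour dose response in 96-well plates underlies each endpoint, interpolated linearly between surrounding concentrations. GI50 is the concentration that inhibits growth by half. TGI is the concentration that stops growth completely.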

Assays:
Experiment in all cases: NCI tumour cell line growth inhibition, 48 h
786-0 renal = test system: 786-0 renal
A498 renal = test system: A498 renal
A549 NSCLC = test system: A549 NSCLC
ACHN renal = test system: ACHN renal
BT-549 breast = test system: BT-549 breast
CAKI-1 renal = test system: CAKI-1 renal
COLO 205 colon = test system: COLO 205 colon
DU-145 prostate = test system: DU-145 prostate
EKVX NSCLC = test system: EKVX NSCLC
HCC-2998 colon = test system: HCC-2998 colon
HCT-15 colon = test system: HCT-15 colon
HL-60(TB) leukemia = test system: HL-60(TB) leukemia
HOP-62 NSCLC = test system: HOP-62 NSCLC
HOP-92 NSCLC = test system: HOP-92 NSCLC
HS 578T breast = test system: HS 578T breast
HT29 colon = test system: HT29 colon
IGROV1 ovarian = test system: IGROV1 ovarian
K-562 leukemia = test system: K-562 leukemia
KM12 colon = test system: KM12 colon
M14 melanoma = test system: M14 melanoma
MALME-3M melanoma = test system: MALME-3M melanoma
MCF7 breast = test system: MCF7 breast
MDA-MB-231 breast = test system: MDA-MB-231 breast
MDA-MB-435 = test system: MDA-MB-435
MDA-MB-468 breast = test system: MDA-MB-468 breast
MOLT-4 leukemia = test system: MOLT-4 leukemia
NCI-H226 lung = test system: NCI-H226 lung
NCI-H23 lung = test system: NCI-H23 lung
NCI-H460 lung = test system: NCI-H460 lung
NCI-H522 lung = test system: NCI-H522 lung
NCI/ADR-RES ovarian = test system: NCI/ADR-RES ovarian
OVCAR-3 ovarian = test system: OVCAR-3 ovarian
OVCAR-4 ovarian = test system: OVCAR-4 ovarian
OVCAR-5 ovarian = test system: OVCAR-5 ovarian
OVCAR-8 ovarian = test system: OVCAR-8 ovarian
PC-3 prostate = test system: PC-3 prostate
RPMI-8226 leukemia = test system: RPMI-8226 leukemia
RXF 393 renal = test system: RXF 393 renal
SF-268 CNS = test system: SF-268 CNS
SF-295 CNS = test system: SF-295 CNS
SF-539 CNS = test system: SF-539 CNS
SK-MEL-2 melanoma = test system: SK-MEL-2 melanoma
SK-MEL-28 melanoma = test system: SK-MEL-28 melanoma
SK-MEL-5 melanoma = test system: SK-MEL-5 melanoma
SK-OV-3 ovarian = test system: SK-OV-3 ovarian
SN12C renal = test system: SN12C renal
SNB-19 CNS = test system: SNB-19 CNS
SNB-75 CNS = test system: SNB-75 CNS
SR leukemia = test system: SR leukemia
SW-620 colon = test system: SW-620 colon
T-47D breast = test system: T-47D breast
TK-10 renal = test system: TK-10 renal
U251 CNS = test system: U251 CNS
UACC-257 melanoma = test system: UACC-257 melanoma
UACC-62 melanoma = test system: UACC-62 melanoma
UO-31 renal = test system: UO-31 renal

In the case of `COc1ccc(-c2nc(Nc3ccccc3S(N)(=O)=O)c3ccccc3n2)cc1`, the GI50 (786-0 renal) is reported as 3.75 µM, the TGI (786-0 renal) is reported as 14.6 µM and the GI50 (A498 renal) is reported as 10.5 µM. For the same compound, the TGI (A498 renal) was 57.6 µM, the GI50 (A549 NSCLC) was 3.7 µM and the TGI (A549 NSCLC) was 30.9 µM. The GI50 (ACHN renal) was 6.39 µM, the TGI (ACHN renal) was 28.3 µM and the GI50 (BT-549 breast) was 22.5 µM. The TGI (BT-549 breast) was greater than 100 µM, the GI50 (CAKI-1 renal) was 3.93 µM and the TGI (CAKI-1 renal) was 42.5 µM. It also gave a GI50 (COLO 205 colon) of 5.29 µM, a TGI (COLO 205 colon) greater than 100 µM and a GI50 (DU-145 prostate) of 4.67 µM. The TGI (DU-145 prostate) was 32.9 µM, the GI50 (EKVX NSCLC) was 5.35 µM and the TGI (EKVX NSCLC) was 28.4 µM. It also gave a GI50 (HCC-2998 colon) of 3.46 µM, a TGI (HCC-2998 colon) of 13.7 µM and a GI50 (HCT-15 colon) of 3.74 µM. It also gave a TGI (HCT-15 colon) of 13.4 µM, a GI50 (HL-60(TB) leukemia) greater than 100 µM and a TGI (HL-60(TB) leukemia) greater than 100 µM. For the same compound, the GI50 (HOP-62 NSCLC) was 12.8 µM, the TGI (HOP-62 NSCLC) was 45.4 µM and the GI50 (HOP-92 NSCLC) was 7.68 µM. For the same compound, the TGI (HOP-92 NSCLC) was 71.3 µM, the GI50 (HS 578T breast) was 4.28 µM and the TGI (HS 578T breast) was greater than 100 µM. For the same compound, the GI50 (HT29 colon) was 4 µM, the TGI (HT29 colon) was 32.2 µM and the GI50 (IGROV1 ovarian) was 99.2 µM. It also gave a TGI (IGROV1 ovarian) greater than 100 µM, a GI50 (K-562 leukemia) of 4.49 µM and a TGI (K-562 leukemia) greater than 100 µM. It also gave a GI50 (KM12 colon) of 4.27 µM, a TGI (KM12 colon) greater than 100 µM and a GI50 (M14 melanoma) of 6.06 µM. For the same compound, the TGI (M14 melanoma) was greater than 100 µM, the GI50 (MALME-3M melanoma) was 5.24 µM and the TGI (MALME-3M melanoma) was 50.4 µM. For the same compound, the GI50 (MCF7 breast) was 2550 nM, the TGI (MCF7 breast) was 15.1 µM and the GI50 (MDA-MB-231 breast) was 2140 nM. The TGI (MDA-MB-231 breast) was 5.77 µM, the GI50 (MDA-MB-435) was 4.36 µM and the TGI (MDA-MB-435) was greater than 100 µM. It also gave a GI50 (MDA-MB-468 breast) of 2550 nM, a TGI (MDA-MB-468 breast) of 8.01 µM and a GI50 (MOLT-4 leukemia) of 4.41 µM. It also gave a TGI (MOLT-4 leukemia) greater than 100 µM, a GI50 (NCI-H226 lung) of 2040 nM and a TGI (NCI-H226 lung) of 7.13 µM. The GI50 (NCI-H23 lung) was 2400 nM, the TGI (NCI-H23 lung) was 7.91 µM and the GI50 (NCI-H460 lung) was 2790 nM. For the same compound, the TGI (NCI-H460 lung) was 8.9 µM, the GI50 (NCI-H522 lung) was 4.19 µM and the TGI (NCI-H522 lung) was 25.7 µM. It also gave a GI50 (NCI/ADR-RES ovarian) of 3.19 µM, a TGI (NCI/ADR-RES ovarian) of 16.6 µM and a GI50 (OVCAR-3 ovarian) of 14.3 µM. It also gave a TGI (OVCAR-3 ovarian) greater than 100 µM, a GI50 (OVCAR-4 ovarian) of 28.9 µM and a TGI (OVCAR-4 ovarian) greater than 100 µM. It also gave a GI50 (OVCAR-5 ovarian) of 46.1 µM, a TGI (OVCAR-5 ovarian) greater than 100 µM and a GI50 (OVCAR-8 ovarian) of 6.41 µM. For the same compound, the TGI (OVCAR-8 ovarian) was greater than 100 µM, the GI50 (PC-3 prostate) was 7.21 µM and the TGI (PC-3 prostate) was greater than 100 µM. The GI50 (RPMI-8226 leukemia) was 4.35 µM, the TGI (RPMI-8226 leukemia) was greater than 100 µM and the GI50 (RXF 393 renal) was 1910 nM. It also gave a TGI (RXF 393 renal) of 7.27 µM, a GI50 (SF-268 CNS) of 3.62 µM and a TGI (SF-268 CNS) of 32.1 µM. For the same compound, the GI50 (SF-295 CNS) was 3000 nM, the TGI (SF-295 CNS) was 13.2 µM and the GI50 (SF-539 CNS) was 3.05 µM. The TGI (SF-539 CNS) was 12.2 µM, the GI50 (SK-MEL-2 melanoma) was greater than 100 µM and the TGI (SK-MEL-2 melanoma) was greater than 100 µM. The GI50 (SK-MEL-28 melanoma) was 7.31 µM, the TGI (SK-MEL-28 melanoma) was greater than 100 µM and the GI50 (SK-MEL-5 melanoma) was 2760 nM. The TGI (SK-MEL-5 melanoma) was 10.4 µM, the GI50 (SK-OV-3 ovarian) was 15.7 µM and the TGI (SK-OV-3 ovarian) was 71.3 µM. It also gave a GI50 (SN12C renal) greater than 100 µM, a TGI (SN12C renal) greater than 100 µM and a GI50 (SNB-19 CNS) of 18 µM. It also gave a TGI (SNB-19 CNS) of 63.3 µM, a GI50 (SNB-75 CNS) of 2320 nM and a TGI (SNB-75 CNS) greater than 100 µM. It also gave a GI50 (SR leukemia) of 6.28 µM, a TGI (SR leukemia) greater than 100 µM and a GI50 (SW-620 colon) of 4.19 µM. The TGI (SW-620 colon) was 97.9 µM, the GI50 (T-47D breast) was 3.47 µM and the TGI (T-47D breast) was greater than 100 µM. It also gave a GI50 (TK-10 renal) of 21.7 µM, a TGI (TK-10 renal) of 81.3 µM and a GI50 (U251 CNS) of 3.31 µM. The TGI (U251 CNS) was 14.2 µM, the GI50 (UACC-257 melanoma) was greater than 100 µM and the TGI (UACC-257 melanoma) was greater than 100 µM. The GI50 (UACC-62 melanoma) was 8.84 µM, the TGI (UACC-62 melanoma) was greater than 100 µM and the GI50 (UO-31 renal) was 9.42 µM. It also gave a TGI (UO-31 renal) of 33.4 µM.
